In BindingDB's records for doi:10.1016/j.ejmech.2017.07.038 (Jain University, 2017):
pIC50: −log10 of the molar value.

Assay: Antagonist activity at ER in human MCF7 cells assessed as inhibition of 17beta-estradiol-induced cell proliferation

pIC50: 9.05
Structure (SMILES): Oc1ccc2c(c1)C(c1ccc(OCCN3CCCCC3)cc1)c1c(sc3cc(O)ccc13)C2 (stereo unspecified)
